Biological target: T1, human V2 vasopressin receptor subtype (Homo sapiens, UniProt P30518)
T1 construct: host or cells: CHO cells, stably transfected (pZeoSV vector); membranes
Test: Vasopressin binding in CHO cell membranes expressing human vasopressin V2 subtype receptors ([3H]arginine vasopressin)
Conditions: 100 nM, value without parentheses
From the text: Vasopressin Binding in Chinese Hamster Ovary Cell Membranes Expressing Human Vasopressin V2 Subtype Receptors
Chinese Hamster Ovary (CHO) cells stably transfected with the human V2 subtype receptors were obtained from M. Thibonnier, Case Western Reserve University School of Medicine, Cleveland, Ohio.
A. Passaging and Amplification of Cells:
CHO cells transfected with the human vasopressin V2 subtype receptors obtained from M. Thibonnier (pZeoSV vector) are allowed to grow to confluency (approx. >90%) in T-150 flasks under sterile conditions, in a cell culture medium of F-12 Nutrient Mixture (HAM) with L-glutamine (Gibco Cat. #11765-054) containing 15 mM HEPES (Gibco Cat. #15630-080), 1% antibiotic/antimycotic (add 5 mL 100×, Gibco Cat. #15240-062 per 500 mL F-12), 250 μg/mL Zeocin (add 1.25 mL of 100 mg/mL Invitrogen R-250-01 per 500 mL F-12) and 10% Fetal Bovine Serum (Qualified, heat inactivated, Gibco Cat. #16140-063). The medium is removed by aspiration and the cells washed with 10 mL of Hank's Balanced Salt solution (Gibco Cat. #14175-095). The salt solution is removed by aspiration and the cells trypsinized with 5 mL of trypsin-EDTA (0.05% trypsin, 0.53 mM EDTA-4Na, Gibco Cat. #25300-070) for 1 min. The trypsin is removed by aspiration and the cells dislodged by tapping. Cell Culture medium (e.g. 30 mL for 1:30 split) is immediately added and mixed well to inactivate trypsin. 1 mL of detached cells is added to new culture flasks containing fresh Cell Culture medium (e.g. into 25 mL per T-150 flask), and mixed gently. The cells are incubated at 37° C. in 5% CO2. The medium is changed at 3 to 4 day interval (or as appropriate). The cells grow to confluency (approx. >75%-95%) within 7-8 days. All steps are done under sterile conditions.
The cells are washed twice gently with Hank's Balanced Salt solution (e.g. use 10 mL per T-150 flask). The excess solution is removed and the cells bathed for 15-30 min. in an enzyme-free Cell Dissociation Buffer (e.g. use 8 mL Hank's Based, Gibco Cat. #13150-016 per T-150 flask) until cells are loosened. The contents are transferred to centrifuge tubes (50 mL size) kept in ice bath. All subsequent steps are done at 4° C. The tubes are centrifuged at 300×g for 15 min (1380 rpm on SORVAL, Model RT6000D, using rotor for 50 mL tubes). The supernatant is discarded and the cells suspended in homogeneizing buffer(10 mM Tris-HCl containing 0.25 M sucrose and 1 mM EDTA, pH 7.4) ensuring that the volume of the buffer is about ten times the volume of the cell pellet. The cells are pooled into a centrifuge tube (50 mL) and homogenized with Polytron at setting 6 for 10 sec. The homogenate is transferred into a Potter-Elvjehm homogeneizer and homogenized with 3 strokes. The homogenate is centrifuged at 1500×g for 60 min at 4° C. (3100 rpm using SORVAL, model RT6000D, using rotor for 50 mL tubes). The pellet is discarded. The supernatant is centrifuged at 100,000×g for 60 min. at 4° C. (Beckman L8-80M ultracentrifuge; spin at 37,500 rpm with rotor type 70 Ti for 50 mL tubes; 38,000 rpm with type 80Ti for 15 mL tubes; or 35,800 rpm with rotor type 45Ti). The supernantant is discarded and the pellet suspended in 3 to 4 mL of Tris buffer (50 mM TRIS-HCl, pH 7.4). The protein content is estimated by the Bradford or Lowry method. The volume of the membrane suspension is adjusted with the membrane buffer (50 mM Tris-HCl containing 0.1% BSA and 0.1 mM PMSF) to give 3.0 mg/mL (or as appropriate) of protein. The membranes are aliquoted and stored at −70° C.
C. Radioligand Binding Assay:
In wells of a 96-well format microtiter plate, is added 90, 110 or 130 μL (to make up a final volume of 200 μL) of assay buffer containing 50 mM of Tris-HCl (pH 7.4), […], 1 mg % aprotinin, 1 mg % leupeptin, 2 mg % 1,10-phenanthroline, 10 mg % trypsin inhibitor, and 0.1 mM PMSF. The inhibitors are added on the day of the experiment. […]

T1 sequence (P30518 whole entry): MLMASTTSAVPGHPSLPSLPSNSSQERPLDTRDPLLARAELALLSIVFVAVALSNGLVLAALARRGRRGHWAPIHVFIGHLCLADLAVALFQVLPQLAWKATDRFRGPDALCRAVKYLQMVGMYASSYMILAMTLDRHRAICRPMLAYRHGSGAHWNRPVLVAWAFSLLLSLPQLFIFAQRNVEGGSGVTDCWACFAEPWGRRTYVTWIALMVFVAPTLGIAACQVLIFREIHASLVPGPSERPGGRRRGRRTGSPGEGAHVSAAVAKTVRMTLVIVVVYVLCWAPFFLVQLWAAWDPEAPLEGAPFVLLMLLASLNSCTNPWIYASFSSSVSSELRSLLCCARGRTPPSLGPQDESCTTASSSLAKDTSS

SMILES | V2 % inhibition @ 100 nM
Cc1cc(C(=O)N2Cc3ccc(C(=O)N(CCO)CCO)n3Cc3ccccc32)ccc1C1=CCCc2ccccc21 [Example 16, {10-[4-(3,4-Dihydro-naphthalen-1-yl)-3-methyl-benzoyl]-10,11-dihydro-5H-pyrrolo[2,1-c][1,4]benzodiazepin-3-yl}-3-carboxylic acid bis-(2-hydroxy-ethyl)-amide] | 46%
Cc1cc(C(=O)N2Cc3ccc(C(=O)N4CCN(CCO)CC4)n3Cc3ccccc32)ccc1C1=CCCCC1 [Example 17, {10-[4-(1-Cyclohex-1-en-1-yl)-3-methylbenzoyl]-10,11-dihydro-5H-pyrrolo[2,1-c][1,4]benzodiazepin-3-yl}[4-(2-hydroxyethyl)-1-piperazinyl]methanone] | 7%
